Holding throughout (format): cell-based
For data set [1], the system named is HIV-IIIb. Kind of data set: Antiviral assay in MT4 cells. The following applies: MT4 cells infected with HIV-IIIb (0.004 m.o.i.), 5 days incubation, CellTiter-Glo, average over assays. As for the experimental part:
(§1) For the antiviral assay utilizing MT4 cells, 0.4 μL of 189X test concentration of 3-fold serially diluted compound in DMSO was added to 40 μl of cell growth medium (RPMI 1640, 10% FBS, 1% penicillin/streptomycin, 1% L-Glutamine, 1% HEPES) in each well of 384-well assay plates (10 concentrations) in quadruplicate.
(§2) 1 mL aliquots of 2×10^6 MT4 cells are pre-infected for 1 and 3 hours respectively at 37° C. with 25 μL (MT4) or of either cell growth medium (mock-infected) or a fresh 1:250 dilution of an HIV-IIIb concentrated ABI stock (0.004 m.o.i. for MT4 cells). Infected and uninfected cells are diluted in cell growth medium and 35 μL of 2000 (for MT4) cells is added to each well of the assay plates.
(§3) Assay plates were then incubated in a 37° C. incubator. After 5 days of incubation, 25 μL of 2× concentrated CellTiter-Glo™ Reagent (catalog # G7573, Promega Biosciences, Inc., Madison, Wis.) was added to each well of the assay plate. Cell lysis was carried out by incubating at room temperature for 2-3 minutes, and then chemiluminescence was read using the Envision reader (PerkinElmer).
In general terms: Cellular ATP, detected with luciferase, serves as a proxy for viable cell number.

Data set [2] deals with MT4 cells. The data set can be described thus: Cytotoxicity (CC50) in MT4 cells within the antiviral assay. As for the experimental part: as §1, §2, §3
Experiment in data set [3]: as above
The following applies: human, MT4 cells (mock-infected); MT4 cells, 5 days incubation, CellTiter-Glo; average over assays. Here is the method:
as §1, §2, §3

Setting [4] is: MT4 cells, 5 days incubation, CellTiter-Glo, average over assays, read-out: CC50.
[5] abbreviates: Human immunodeficiency virus 1, IIIB, MT4, 120 h.

Like-named read-outs stand apart in the source and are kept apart here.

With `O=C(NCc1ccc(F)c(Cl)c1F)c1cn2c(c(O)c1=O)C(=O)N1CC=CC[C@]13COCC[C@H]23` [Compound 25], in data set [1], the EC50 – broadly, the concentration that produces a half-maximal response – was 2.42 nM. Moreover, the CC50 (usually the concentration at which the toxic effect on the cells reaches its halfway point) in data set [2] (setting [4]) stood at 22100 nM.

On to `C[C@@H]1CO[C@@]23CCC[C@@H]2n2cc(C(=O)NCc4c(F)cc(F)cc4F)c(=O)c(O)c2C(=O)N13` [Compound 66], for which the EC50 in data set [1] (setting [5]) is 2.53 nM. For the same molecule, the CC50 at 5 days in data set [3] is 6920 nM.

For the molecule `C[C@@H]1CN2C(=O)c3c(O)c(=O)c(C(=O)NCc4ccc(F)c(Cl)c4F)cn3[C@H]3CCC[C@]32O1` [Compound 73], in data set [1], it took 3.83 nM to reach a half-maximal effect (EC50). Further, it took 3320 nM to reach half-maximal cytotoxicity in data set [2] (CC50).

In turn, `C[C@H]1CO[C@]23CCC[C@H]2n2cc(C(=O)NCc4ccc(F)c(Cl)c4F)c(=O)c(O)c2C(=O)N13` [Compound 69] gave an EC50 in data set [1] (setting [5]) of 8.02 nM. The same molecule displayed a CC50 at 5 days in data set [3] of 15600 nM.

In data set [1] (setting [5]), `C[C@@H]1CN2C(=O)c3c(O)c(=O)c(C(=O)NCc4ccc(F)c(Cl)c4F)cn3[C@@H]3CCC[C@@]32O1` (single isomer, unassigned) [Compound 74] had an EC50 of 3.17 nM. The same molecule yielded a CC50 at 5 days in data set [3] of 5770 nM.

The molecule `O=C(NCc1ccc(F)c(Cl)c1F)c1cn2c(c(O)c1=O)C(=O)N1CCCC[C@]13COC[C@H]23` [Compound 42] showed an EC50 in data set [1] (setting [5]) of 3.49 nM. The molecule also displayed a CC50 at 5 days in data set [3] of 7480 nM.

In data set [1] (setting [5]), `C[C@@H]1CO[C@@]23CCOC[C@@H]2n2cc(C(=O)NCc4ccc(F)c(Cl)c4F)c(=O)c(O)c2C(=O)N13` [Compound 100] returned an EC50 of 1.82 nM. The CC50 in data set [2] (setting [4]) worked out at 7530 nM.

For the molecule `C[C@@H]1CCO[C@@]23CCC[C@@H]2n2cc(C(=O)NCc4ccc(F)c(Cl)c4F)c(=O)c(O)c2C(=O)N13` [Compound 77], a half-maximal response in data set [1] (setting [5]) (EC50) required 7.02 nM. The molecule further came in with a CC50 at 5 days in data set [3] of 7270 nM.

For the molecule `O=C(NCc1ccc(F)c(Cl)c1F)c1cn2c(c(O)c1=O)C(=O)N1CCS[C@]13COCC[C@H]23` (racemic) [Compound 103], the EC50 in data set [1] (setting [5]) turned out to be 1.2 nM. Also, the CC50 in data set [2] (setting [4]) stood at 10800 nM.

As to `O=C(NCc1ccc(F)c(Cl)c1F)c1cn2c(c(O)c1=O)C(=O)N1CCO[C@]13CCCC[C@H]23` (racemic) [Compound 96], in data set [1] (setting [5]), the midpoint of the response, the EC50, lay at 4.43 nM. In data set [3], this molecule showed a CC50 at 5 days of 1370 nM.

`O=C(NCc1ccc(F)c(Cl)c1F)c1cn2c(c(O)c1=O)C(=O)N1CC=CC[C@]13CCOC[C@H]23` [Compound 14]: in data set [1] (setting [5]), the EC50 amounted to 4.62 nM. Besides, the CC50 in data set [2] (setting [4]) was 8020 nM.

`C[C@H]1CCO[C@]23CCC[C@H]2n2cc(C(=O)NCc4ccc(F)c(Cl)c4F)c(=O)c(O)c2C(=O)N13` [Compound 80] had an EC50 in data set [1] (setting [5]) of 11.8 nM. Moreover, in data set [2] (setting [4]), the CC50 was found to be 17500 nM.

For `O=C(NCc1ccc(F)c(Cl)c1F)c1cn2c(c(O)c1=O)C(=O)N1CCCC[C@]13CCOC[C@H]23` [Compound 15], the EC50 in data set [1] was 4.64 nM. In addition, half-maximal cytotoxicity in data set [2] (CC50) was put at 7520 nM.

Turning to `C[C@@H]1CO[C@@]23CCOC[C@@H]2n2cc(C(=O)NCc4ccc(F)c(Cl)c4F)c(=O)c(O)c2C(=O)N13` [Compound 94], in data set [1], the response was half-maximal at 1.88 nM (EC50). Moreover, the midpoint of cytotoxicity in data set [3], the CC50 at 5 days, lay at 3990 nM.

In data set [1] (setting [5]), `O=C(NCc1c(F)cc(F)cc1F)c1cn2c(c(O)c1=O)C(=O)N1CCCC[C@]13COCC[C@H]23` [Compound 31] displayed an EC50 of 1.94 nM. In addition, the CC50 in data set [2] (setting [4]) was found to be 33600 nM.

The molecule `O=C(NCc1ccc(F)c(Cl)c1F)c1cn2c(c(O)c1=O)C(=O)N1CC=CC[C@]13COC[C@H]23` [Compound 41] returned an EC50 in data set [1] (setting [5]) of 2.38 nM. The CC50 at 5 days in data set [3] was found to be 9190 nM.

`C[C@H]1CO[C@]23CCC[C@H]2n2cc(C(=O)NCc4c(F)cc(F)cc4F)c(=O)c(O)c2C(=O)N13` [Compound 70] returned an EC50 in data set [1] (setting [5]) of 4.7 nM. The molecule further returned a CC50 at 5 days in data set [3] of 16400 nM.

As to `O=C(NCc1c(F)cc(F)cc1F)c1cn2c(c(O)c1=O)C(=O)N1CC=CC[C@]13COCC[C@H]23` [Compound 30], a half-maximal response in data set [1] (setting [5]) (EC50) required 2.59 nM. Also, in data set [3], the CC50 at 5 days is 33100 nM.

Turning to `O=C(NCc1ccc(F)c(Cl)c1F)c1cn2c(c(O)c1=O)C(=O)N1CCCC[C@]13COCC[C@H]23` [Compound 26], the EC50 in data set [1] worked out at 2.63 nM. In addition, in data set [2], the CC50 came out at 22100 nM.

Turning to `C[C@@H]1CO[C@@]23CCC[C@@H]2n2cc(C(=O)NCc4ccc(F)c(Cl)c4F)c(=O)c(O)c2C(=O)N13` [Compound 65], the EC50 in data set [1] (setting [5]) turned out to be 4.13 nM. In addition, in data set [3], it took 5530 nM to reach half-maximal cytotoxicity (CC50 at 5 days).

Source of the values: patent US9630978B2, “Polycyclic-carbamoylpyridone compounds and their pharmaceutical use” (Gilead Sciences, Inc., priority 2015, dated 2017).
